Test results published in the NIST ThermoML archive (doi:10.1007/s10765-010-0766-0).

Experiment: molar heat capacity at constant volume; wn = mass fraction of the nth substance listed
Conditions: Liquid, Vacuum adiabatic calorimetry, w2 = 0.4981

FC(F)C(F)(F)F [pentafluoroethane] + FCF
Conditions	molar heat capacity at constant volume [J/K/mol]
357.15 K, 9042 kPa	82.22
357.15 K, 9048 kPa	82.43
357.15 K, 16243 kPa	68.41
357.15 K, 16254 kPa	69.93
357.15 K, 16277 kPa	69.42
358.15 K, 9284 kPa	81.71
358.15 K, 9290 kPa	83.6
358.15 K, 16617 kPa	69.79
358.15 K, 16628 kPa	70.73
358.15 K, 16652 kPa	69.13
359.15 K, 9527 kPa	82.29
359.15 K, 9532 kPa	83.09
359.15 K, 16990 kPa	69.86
359.15 K, 17003 kPa	71.24
359.15 K, 17027 kPa	67.9
360.15 K, 9770 kPa	82.07
360.15 K, 9775 kPa	82.29
360.15 K, 17365 kPa	69.42
360.15 K, 17377 kPa	68.55
360.15 K, 17401 kPa	69.64
361.15 K, 10013 kPa	81.2
361.15 K, 10019 kPa	82.73
361.15 K, 17739 kPa	70.08
361.15 K, 17752 kPa	71.46
361.15 K, 17776 kPa	68.48
362.15 K, 10256 kPa	82.65
362.15 K, 10262 kPa	83.31
362.15 K, 18113 kPa	69.42
362.15 K, 18127 kPa	71.17
362.15 K, 18151 kPa	69.06
363.15 K, 10501 kPa	80.69
363.15 K, 10506 kPa	82.22
363.15 K, 18487 kPa	70.59
363.15 K, 18501 kPa	69.57
363.15 K, 18526 kPa	69.79
364.15 K, 10745 kPa	81.78
364.15 K, 10751 kPa	81.56
364.15 K, 18862 kPa	69.2
364.15 K, 18876 kPa	70.8
364.15 K, 18899 kPa	68.91
365.15 K, 10990 kPa	81.49
365.15 K, 10996 kPa	82.29
365.15 K, 19236 kPa	69.57
365.15 K, 19250 kPa	69.79
365.15 K, 19274 kPa	70.08
366.15 K, 11235 kPa	80.04
366.15 K, 11241 kPa	81.78
366.15 K, 19610 kPa	70
366.15 K, 19625 kPa	70.22
366.15 K, 19649 kPa	68.99
367.15 K, 11480 kPa	81.49
367.15 K, 11486 kPa	81.93
367.15 K, 19985 kPa	69.06
367.15 K, 20000 kPa	69.86
367.15 K, 20025 kPa	68.48
368.15 K, 11726 kPa	81.42
368.15 K, 11732 kPa	82.07
368.15 K, 20360 kPa	69.35
368.15 K, 20375 kPa	69.71
368.15 K, 20400 kPa	68.77
369.15 K, 11972 kPa	79.89
369.15 K, 11979 kPa	82.73
369.15 K, 20734 kPa	69.42
369.15 K, 20750 kPa	70
369.15 K, 20776 kPa	68.7
370.15 K, 12219 kPa	80.69
370.15 K, 12225 kPa	80.76
370.15 K, 21109 kPa	70.8
370.15 K, 21125 kPa	69.35
370.15 K, 21150 kPa	69.2
371.15 K, 12465 kPa	80.25
371.15 K, 12472 kPa	82.07
371.15 K, 21484 kPa	70.3
371.15 K, 21500 kPa	71.82
371.15 K, 21525 kPa	68.55
372.15 K, 12712 kPa	80.11
372.15 K, 12719 kPa	81.78
372.15 K, 21859 kPa	70.44
372.15 K, 21875 kPa	69.64
372.15 K, 21901 kPa	69.42
373.15 K, 12959 kPa	80.91
373.15 K, 12966 kPa	82.43
373.15 K, 22234 kPa	69.86
373.15 K, 22250 kPa	71.17
373.15 K, 22277 kPa	69.57
374.15 K, 13207 kPa	80.11
374.15 K, 13213 kPa	81.71
374.15 K, 22609 kPa	70.59
374.15 K, 22625 kPa	70.37
374.15 K, 22654 kPa	69.2
375.15 K, 13454 kPa	80.04
375.15 K, 13461 kPa	81.85
375.15 K, 22984 kPa	71.68
375.15 K, 23000 kPa	72.33
375.15 K, 23029 kPa	70.15
